From US20170246124A1, “TREATMENT OF LEIGH SYNDROME AND LEIGH-LIKE SYNDROME WITH TOCOTRIENOL QUINONES” (BioElectron Technology Corporation, priority 2009, published 2017)
Read-outs that look alike come from different tables or passages of the source.

What was measured:
[1] = Blood-brain barrier crossing, homogenized brains of mice dosed IP; format: in vivo; conditions: C57/BL mice dosed IP at 25 mg/kg, FIG. 5
[2] = test system: SURF-1 fibroblasts; assay: Surfeit-1 (SURF1) cell line assay: rescue of BSO-stressed patient fibroblasts, Calcein AM viability; format: cell-based; conditions: Homo sapiens, Fibroblast, BSO-stressed fibroblasts of the Example 2 patient
Experimental: Alpha-Tocotrienol quinone, its redox-silent version (the bis-Boc protected corresponding hydroquinone), and solvent controls were tested for their ability to rescue cells from SURF-1 fibroblasts of the patient diagnosed with SURF-1 described in Example 2, when the cells were stressed by addition of L-buthionine-(S,R)-sulfoximine (BSO), as described in Jauslin et al., Hum. Mol. Genet. 11(24):3055 (2002), Jauslin et al., FASEB J. 17:1972-4 (2003), and International Patent Application WO 2004/003565. EC50 concentrations of test compound and its redox-silent version were determined and compared. The following compound, 2-((6E,10E)-3-hydroxy-3,7,11,15-tetramethylhexadeca-6,10,14-trienyl)-3,5,6-trimethyl-bis(t-butyloxycarbonyl)benzene-1,4-diol, the bis-Boc protected hydroquinone form of alpha-tocotrienol quinone, was used as the “redox-silent” alpha tocotrienol quinone, or αTTQ-RS.
MEM (a medium enriched in amino acids and vitamins, catalog no. 1-31F24-I) and Medium 199 (M199, catalog no. 1-21F22-I) with Earle's Balanced Salts, without phenol red, were purchased from Bioconcept. Fetal Calf Serum was obtained from PAA Laboratories. Basic fibroblast growth factor and epidermal growth factor were purchased from PeproTech. Penicillin-streptomycin-glutamine mix, L-buthionine (S,R)-sulfoximine, and insulin from bovine pancreas were purchased from Sigma. […]

[3] = Animal study of alpha-tocotrienol quinone administration, pharmacokinetics in rats; conditions: rat, in vivo, 10 mg/kg
Experimental: (§1) The particular dosage appropriate for a specific patient is determined by dose titration. […] There is less than dose-proportionality since for an increase in doses of 2.4:6:10:20 there is only an increase in AUCs of 1.5:2.8:4.0:6.7. This lack of dose-proportionality may be due to decreased absorption since there is no change in t1/2 over dose range. Alpha-tocotrienol quinone tested in rats was safe when given acutely up to 2000 mg/kg.

[4] = test system: patient with Leigh Syndrome; assay: Treatment of a Leigh Syndrome patient with SURF-1 mutations (Example 2): lactate, MRI, adverse events; format: in vivo, human; conditions: Example 2 patient
Experimental: A patient with Leigh Syndrome was treated with alpha-tocotrienol quinone. Informed consent was obtained from the child's parents in accordance with federal regulations and institutional protocol. Two mutations were identified in the SURF-1 gene of the patient.
(§2) The patient's weight was approximately 10 kg. Alpha-tocotrienol quinone was administered to the patient via gastrointestinal feeding tube; the drug was mixed with sesame oil for administration. The following dosing of alpha-tocotrienol quinone was used:
The patient returned for a review of safety and efficacy evaluation, including CNS lactate/pyruvate ratios as determined by non-invasive means (MRI/MRS) and ECHO. The following efficacy parameters were evaluated: PK parameters; magnetic resonance spectroscopy of central nervous system; echocardiography and electrocardiogram; and plasma and urine analytes.
Lactic acid measurements were as follows:
Magnetic resonance imaging of the patient was performed to assess the effect of treatment. […] These findings are consistent with Leigh Syndrome encephalopathies.
Close monitoring of the patient during the study was performed, to detect any adverse events. In addition, the investigator had authority to stop the study if the safety of the subject was at risk.

[5] = Animal study of alpha-tocotrienol quinone administration, pharmacokinetics in fasted dogs; conditions: dog, in vivo, po, 10 mg/kg
Experimental: as §1

[6] = Treatment of a Leigh Syndrome patient with SURF-1 mutations (Example 2): drug levels in plasma and CSF; format: in vivo, human; conditions: Example 2 patient
Experimental: as §2
Full pharmacokinetic sampling (post dose, 3 h, 6 h, 10 h, 24 h, 36 h, 48 h, and 72 h) was done after administration of the initial dose. 0.5 mL of blood were taken at each time point, for a total of four mL of blood drawn at 72 h. Bio-analysis and pharmacokinetic calculations were conducted.
The minimal effective dose of alpha-tocotrienol quinone was determined. The concentration 24 hours after dosing (C24h) was expected to be 220.5 ng/ml (0.504), while the minimal effective dose was expected to be around 150 mg. Thus, the daily dosage was escalated stepwise.
The concentration of alpha tocotrienol quinone was monitored in the patient. […] Alpha tocotrienol quinone was present at 1.3 ng/ml in CSF.

[7] = test system: patient with Leigh Syndrome; assay: Treatment of a Leigh Syndrome patient (Example 3), observed function; format: in vivo, human; conditions: Example 3 patient
Experimental: A patient with Leigh Syndrome was treated with alpha-tocotrienol quinone. Informed consent was obtained from the child's parents in accordance with federal regulations and institutional protocol. A mutation was identified in the SURF-1 gene of the patient.
At the start of treatment, the patient was unable to control their extremities. […] The patient also gained weight.

[8] = rat, in vivo
Experimental: as §1
The starting dose can be estimated based on the United States Food and Drug Administration guidelines titled “Estimating the Maximum Safe Starting Dose in Initial Clinical Trials for Therapeutics in Adult Healthy Volunteers” (July 2005) as well as the International Conference on Harmonisation of Technical Requirements for Registration of Pharmaceuticals for Human Use (ICH) guidelines titled “Guidance on Non-clinical Safety Studies for the Conduct of Human Clinical Trials and Marketing Authorization for Pharmaceuticals” (July 2008). Per ICH guidelines, predicted exposures from the starting dose should not exceed 1/50th the NOAEL (No-Adverse-Observed-Effect-Level) in the more sensitive species on a mg/m^2 basis. Following a single oral dose of alpha-tocotrienol quinone, the NOAEL was established to be 500 mg/kg for the female rat, i.e. 3,000 mg/m2. This dosage would be equivalent to 81 mg/kg in an adult human. […]

[9] = after treatment compared with pre-treatment MRI

CC(C)=CCC/C(C)=C/CC/C(C)=C/CCC(C)(O)CCC1=C(C)C(=O)C(C)=C(C)C1=O (stereo not drawn) [alpha-tocotrienol quinone, Alpha-tocotrienol quinone]
crosses the blood-brain barrier [1]: crosses the blood-brain barrier | EC50 ([2]; FIG. 1 experiment run beside Coenzyme Q10, read-out: EC50, viability of cells with a SURF-1 mutation (FIG. 1)): 27 nM | EC50 ([2]; FIG. 2 experiment run beside αTTQ-RS, read-out: EC50, viability of cells with a SURF-1 mutation (FIG. 2)): 21 nM | bioavailability [3]: ~90% | adverse events ([4]; close monitoring during the study, FIG. 7): No adverse events were observed | plasma lactate level after treatment ([4]; 3.6 mM approximately 4 months prior to treatment, normal range 1.0 to 1.4 mM): 1.1 mM | CSF lactate level after treatment ([4]; 46.5 mg/dL about 2 years pre-treatment): 24.0 mg/dL | MRI: T2 hyperintensities of midbrain, pons, medulla and cerebellum [4, 9]: interval improvement | MRI: amount of lesions [4, 9]: overall decrease | reduction of CSF lactate ([4]; after treatment vs about 2 years pre-treatment): 48.4% | reduction of plasma lactate ([4]; after treatment vs approximately 4 months prior): 69.4% | decrease in brain lactate ([4]; two days prior to treatment to approximately 98 days after starting): 20-30% | bioavailability [5]: ~16% | concentration 24 hours after dosing (C24h), expected ([6]; expectation before dose escalation): 220.5 ng/mL | concentration at 98 day of treatment ([6]; human, cerebrospinal fluid, other: via gastrointestinal feeding tube, 98th day of treatment, FIG. 9): 1.3 ng/mL | control of extremities ([7]; after 22 days of treatment, unable to control extremities at start): able to move their arm in the “high-five” gesture | motor function ([7]; after 379 days of treatment): able to sit upright | weight gained ([7]; after 379 days of treatment): 15 pounds | gastrointestinal function ([7]; under treatment): greatly improved | sleep ([7]; under treatment): improved | dose at which safe when given acutely [8]: up to 2000 mg/kg | NOAEL on mg/m2 basis ([8]; po): 3,000 mg/m2
